# Data as given in patent US6894046B2, “IL-5 inhibiting 6-azauracil derivatives” (Janssen Pharmaceutica N.V., priority 1998, dated 2005).
# Counter-ions that a name gives are not always drawn.
# Tested on: IL-5 production in human blood
# Assay: In vitro inhibition of IL-5 production in human blood (phytohemagglutinin-stimulated whole blood, ELISA)
# Type: cell-based
# Settings: test dose 1×10^−6 M, phytohemagglutinin 2 μg/ml, 48 hours
# Procedure: EXAMPLE C.1: IN VITRO INHIBITION OF IL-5 PRODUCTION IN HUMAN BLOOD
# Peripheral blood from healthy male donors was drawn into heparinized syringes (12.5 U heparin/ml). Blood samples were three-fold diluted in RMPI 1640 medium (Life Technologies, Belgium) supplemented with 2 mM L-glutamine, 100 U/ml penicillin and 100 μg/ml streptomycin, and 300 μl fractions were distributed in 24-well multidisc plates. Blood samples were preincubated (60 minutes at 37° C.) in a humidified 6% CO2-atmosphere with 100 μl of drug solvent (final concentration 0.02% dimethylsulfoxide in RPMI 1640) or with 100 μl of an appropriate dose of test compound before being stimulated by the addition of 100 μl of phytohemagglutinin HA17 (Murex, UK) at a final concentration of 2 μg/ml. After 48 hours, cell-free supernatant fluids were collected by centrifugation and stored at −70° C. until tested for the presence of IL-5.
# IL-5 measurements were conducted as described in Van Wauwe et al. (1996, Inflamm Res, 45, 357-363) on page 358 using ELISA.
# Table 6 lists the percentage inhibition of IL-5 production (column “% inh”) at a test dose of 1×10^−6 M, or in case the percentage inhibition is marked with an “*” 1×10^−5 M, for the compounds of the present invention.
row,Compound,% inh. (percentage inhibition of IL-5 production)
1,CC(C)(c1nc(-c2ccccc2F)c(-c2ccccc2)s1)c1c(Cl)cc(-n2ncc(=O)[nH]c2=O)cc1Cl [Compound 34],93%
2,CC(C)(c1nc(-c2ccccc2)c(C(=O)O)s1)c1c(Cl)cc(-n2ncc(=O)[nH]c2=O)cc1Cl [Compound 117],−7%
3,CC(C)(c1noc(-c2ccccc2CC(=O)O)n1)c1c(Cl)cc(-n2ncc(=O)[nH]c2=O)cc1Cl [Compound 158],3%
4,CC(C)(c1nc(-c2ccccc2Cl)cs1)c1c(Cl)cc(-n2ncc(=O)[nH]c2=O)cc1Cl [Compound 4],94%
5,CC(C)(C)OC(=O)c1sc(C(C)(C)c2c(Cl)cc(-n3ncc(=O)[nH]c3=O)cc2Cl)nc1-c1ccccc1 [Compound 116],89%
6,CC(C)(c1noc(-c2ccccc2C(F)(F)F)n1)c1c(Cl)cc(-n2ncc(=O)[nH]c2=O)cc1Cl [Compound 153],77%
7,"CC(C)(c1nc(-c2ccccc2)c(-c2cccc(OS(N)(=O)=O)c2)s1)c1c(Cl)cc(-n2ncc(=O)[nH]c2=O)cc1Cl [Compound 66, 3-[2-[1-[2,6-dichloro-4-(4,5-dihydro-3,5-dioxo-1,2,4-triazin-2(3H)-yl)phenyl]-1-methylethyl]-4-phenyl-5-thiazolyl]phenylsulfamate (ester)]",53%
8,"2-[3,5-dichloro-4-(2-pyridinyl-methyl)phenyl]-1,2,4-triazine-3,5(2H,4H)-dione hydrochloride(:1); hydrate(1:1) [Compound 107]",14%
9,"1-[[2-[1-[2,6-dichloro-4-(4,5-dihydro-3,5-dioxo-1,2,4-triazin-2(3H)-yl)-phenyl]-1-methylethyl]-4-phenyl-2-thiazolyl]acetyl-4-phenylmethyl)piperazine [Compound 35]",63%
10,CC(C)(c1noc(-c2cccc(F)c2)n1)c1c(Cl)cc(-n2ncc(=O)[nH]c2=O)cc1Cl [Compound 90],91%
11,CC(C)(c1nc(-c2ccc([N+](=O)[O-])s2)cs1)c1c(Cl)cc(-n2ncc(=O)[nH]c2=O)cc1Cl [Compound 74],76%
12,CC(C)(c1noc(-c2cccs2)n1)c1c(Cl)cc(-n2ncc(=O)[nH]c2=O)cc1Cl [Compound 92],80%
13,CC(C)(c1nc(-c2ccccc2)c(CC(=O)N2CCC(O)CC2)s1)c1c(Cl)cc(-n2ncc(=O)[nH]c2=O)cc1Cl [Compound 22],18%
14,CC(C)(c1nc(-c2ccccc2Cl)c(-c2cccc(C#N)c2)s1)c1c(Cl)cc(-n2ncc(=O)[nH]c2=O)cc1Cl [Compound 57],85%
15,CC(C)(c1nc(-c2ccc(F)cc2F)cs1)c1c(Cl)cc(-n2ncc(=O)[nH]c2=O)cc1Cl [Compound 18],91%
16,CC(C)OC(=O)c1cccc(-c2sc(C(C)(C)c3c(Cl)cc(-n4ncc(=O)[nH]c4=O)cc3Cl)nc2-c2ccccc2Cl)c1 [Compound 65],36%
17,CC(C)(c1nc(-c2ccccc2Cl)c(-c2ccccc2)s1)c1c(Cl)cc(-n2ncc(=O)[nH]c2=O)cc1Cl [Compound 32],91%
18,CC(C)(C)OC(=O)c1sc(C(C)(C)c2c(Cl)cc(-n3ncc(=O)[nH]c3=O)cc2Cl)nc1-c1cccs1 [Compound 119],93%
19,CC(C)(c1nc(-c2csc3ccccc23)cs1)c1c(Cl)cc(-n2ncc(=O)[nH]c2=O)cc1Cl [Compound 79],75%
20,CC(C)(c1noc(-c2ccccn2)n1)c1c(Cl)cc(-n2ncc(=O)[nH]c2=O)cc1Cl [Compound 98],58%
21,CCc1sc(C(C)(C)c2c(Cl)cc(-n3ncc(=O)[nH]c3=O)cc2Cl)nc1-c1ccc(-c2ccccc2)cc1 [Compound 48],58%
22,COCc1sc(C(C)(C)c2c(Cl)cc(-n3ncc(=O)[nH]c3=O)cc2Cl)nc1-c1ccccc1 [Compound 30],93%
23,CC(C)(c1nc(-c2ccccc2)c(-c2cccc([N+](=O)[O-])c2)s1)c1c(Cl)cc(-n2ncc(=O)[nH]c2=O)cc1Cl [Compound 49],95%
24,CN1CCN(Cc2ccc(-c3csc(C(C)(C)c4c(Cl)cc(-n5ncc(=O)[nH]c5=O)cc4Cl)n3)s2)CC1 [Compound 112],39%
25,Cc1sc(C(C)(C)c2c(Cl)cc(-n3ncc(=O)[nH]c3=O)cc2Cl)nc1-c1ccccc1Cl [Compound 27],77%
26,COC(=O)c1ccc(-c2nc(C(C)(C)c3c(Cl)cc(-n4ncc(=O)[nH]c4=O)cc3Cl)no2)nc1 [Compound 146],4%
27,CC(C)(c1noc(-c2ccc(F)cc2)n1)c1c(Cl)cc(-n2ncc(=O)[nH]c2=O)cc1Cl [Compound 96],82%
28,Cc1cccc(-c2nc(C(C)(C)c3c(Cl)cc(-n4ncc(=O)[nH]c4=O)cc3Cl)no2)c1 [Compound 91],81%

# Same assay, conditions: test dose 1×10^−6 M, phytohemagglutinin 2 μg/ml, 48 hours, read-out: % inh. (percentage inhibition of IL-5 production)
row,Compound,inhibition at 1 µM
1,"CC(C)(c1nc(-c2ccccc2)c(-c2cccc(N)c2)s1)c1c(Cl)cc(-n2ncc(=O)[nH]c2=O)cc1Cl [Compound 50, 2-[4-[1-[5-(3-aminophenyl)4-phenyl-2-thiazolyl]-1-methylethyl]-3,5-dichlorophenyl]-1,2,4-triazine-3,5(2H,4H)-dione]",91%
2,"CC(C)(c1noc(-c2ccncc2)n1)c1c(Cl)cc(-n2ncc(=O)[nH]c2=O)cc1Cl [Compound 97, 2-[3,5-dichloro-4-[1-methyl-1-[5-(4-pyridinyl)-1,2,4-oxadiazol-3-yl]ethyl]phenyl]-1,2,4-triazine-3,5(2H,4H)-dione]",90%
3,"CC(C)(c1nc(-c2ccccc2)c(-c2cccc(NC(N)=O)c2)s1)c1c(Cl)cc(-n2ncc(=O)[nH]c2=O)cc1Cl [Compound 54, N-[3-[2-[1-[2,6-dichloro-4-(4,5-dihydro-3,5-dioxo-1,2,4-triazin-2(3H)-yl)phenyl]-1-methylethyl]-4-phenyl-5-thiazolyl]phenyl]urea]",61%
4,"CC(C)(c1nc(-c2ccc(N(S(C)(=O)=O)S(C)(=O)=O)s2)cs1)c1c(Cl)cc(-n2ncc(=O)[nH]c2=O)cc1Cl [Compound 81, N-[5-[2-[1-[2,6-dichloro-4-(4,5-dihydro-3,5-dioxo-1,2,4-triazine-2(3H)-yl)phenyl]-1-methylethyl]-4-thiazolyl]-2-thienyl]-N-(methylsulfonyl)methanesulfonamide]",34%
5,"Cc1sc(C(C)(C)c2c(Cl)cc(-n3ncc(=O)[nH]c3=O)cc2Cl)nc1-c1cccc(Cl)c1 [Compound 3, 2-[3,5-di-chloro-4-[1-[4-(3-chlorophenyl)-5-methyl-2-thiazolyl]-1-methylethyl]phenyl]-1,2,4-triazine-3,5(2H,4H)-dione]",92%
6,"CC(C)(c1noc(-c2ccccc2)n1)c1c(Cl)cc(-n2ncc(=O)[nH]c2=O)cc1Cl [Compound 88, 2-[3,5-dichloro-4-[1-methyl-1-(5-phenyl-1,2,4-oxadiazol-3-yl)ethyl]phenyl]-1,2,4-triazine-3,5(2H,4H)-dione]",94%
7,"CN1CCN(C(=O)c2cccc(-c3sc(C(C)(C)c4c(Cl)cc(-n5ncc(=O)[nH]c5=O)cc4Cl)nc3-c3ccccc3Cl)c2)CC1 [Compound 61, 1-[3-[2-[1-[2,6-dichloro-4-(4,5-dihydro-3,5-dioxo-1,2,4-triazin-2(3H)-yl)phenyl]-1-methylethyl]-4-(2-chlorophenyl)-5-thiazolyl]benzoyl]-4-methylpiperazine]",29%
8,"Cc1ccccc1-c1nc(C(C)(C)c2c(Cl)cc(-n3ncc(=O)[nH]c3=O)cc2Cl)no1 [Compound 87, 2-[3,5-dichloro-4-[1-methyl-1-[5-(2-methylphenyl)-1,2,4-oxadiazol-3-yl]ethyl]phenyl]-1,2,4-triazine-3,5(2H,4H)-dione]",89%
9,"CC(C)(c1cc(Cl)c(-n2ncc(=O)[nH]c2=O)c(Cl)c1)c1nc(-c2ccccc2Cl)c(-c2cccc(C(N)=O)c2)s1 [Compound 62, 3-[2-[1-[3,5-dichloro-4-(4,5-dihydro-3,5-dioxo-1,2,4-triazin-2(3H)-yl)phenyl]-1-methylethyl]-4-(2-chlorophenyl)-5-thiazolyl]benzamide]",53%
10,"CC(C)(c1nc(-c2ccccc2)cs1)c1c(Cl)cc(-n2ncc(=O)[nH]c2=O)cc1Cl [Compound 1, 2-[3,5-dichloro-4-[1-methyl-1-(4-phenyl-2-thiazolyl)ethyl]phenyl]-1,2,4-triazine-3,5(2H,4H)-dione]",90.5%
11,"CN1CCN(Cc2ccccc2-c2nc(C(C)(C)c3c(Cl)cc(-n4ncc(=O)[nH]c4=O)cc3Cl)no2)CC1 [Compound 94, 2-[3,5-dichloro-4-[1-methyl-1-[5-[2-[(4-methyl-1-piperazinyl)methyl]phenyl]-1,2,4-oxadiazol-3-yl]ethyl]phenyl]-1,2,4-triazine-3,5(2H,4H)-dione trihydrochloride]",34%
